According to US20240300899A1, “A QUINOLONE COMPOUND IN SOLID FORMS AND PROCESSES FOR THE PREPARATION THEREOF” (ZYDUS LIFESCIENCES LIMITED, priority 2021, published 2024):

Key:
Format in all cases: physicochemical
[1] = Hygroscopicity test as per EP general texts 5.11; conditions: 24-hour exposure over saturated ammonium chloride solution, 25±1° C., 80±2% relative humidity
Method: Hygroscopicity Data: The test for hygroscopicity was performed as per EP general texts 5.11 page no 565. The test was performed by calculating the difference in weights, after 24-hour upon expose over a saturated solution of ammonium chloride at 25±1° C. and 80±2% relative humidity.

[2] = Stability data on storage (HPLC purity, polymorphic form, impurity content)
Method: The crystalline form of compound of Formula (I) is characterized by X-ray powder diffraction (XRPD) pattern. In particular, the solid form of compound of Formula (I) is characterized by X-ray powder diffraction pattern obtained using CuKα1 radiation on a PANalytical X'Pert Pro or equivalent X-ray powder diffraction instrument. Particularly, the X-ray powder diffraction spectrum was measured under the following experimental conditions: The HPLC purity of the compound of Formula (I) was calculated using following method: Instrument Name: Waters Alliance e2695 HPLC system or equivalent [table] [table] [table]

[3] = Powder properties (bulk density, tapped density, angle of repose)
[4] = 25° C. ± 2° C. and 60% ± 5% Relative Humidity, 1 month
[5] = 25° C. ± 2° C. and 60% ± 5% Relative Humidity, 15 days
[6] = 25° C. ± 2° C. and 60% ± 5% Relative Humidity, Initial
[7] = 30° C. ± 2° C. and 65% ± 5% Relative Humidity, 1 month
[8] = 30° C. ± 2° C. and 65% ± 5% Relative Humidity, 15 days
[9] = 30° C. ± 2° C. and 65% ± 5% Relative Humidity, Initial
[10] = 40° C. ± 2° C. and 75% ± 5 % Relative Humidity, 1 month
[11] = 40° C. ± 2° C. and 75% ± 5 % Relative Humidity, 15 days
[12] = 40° C. ± 2° C. and 75% ± 5 % Relative Humidity, Initial

In the case of `O=C(O)CNC(=O)c1c(O)c2ccccc2n(OCC2CC2)c1=O` [Example-1, (1-(cyclopropylmethoxy)-4-hydroxy-2-oxo-1,2-dihydroquinoline-3-carbonyl) glycine], the Hygroscopicity result [1] was “Non-hygroscopic”, the “Increase in mass (hygroscopicity)” value [1] was “less than 0.2%” and the “Content of Compound of Formula D” value [2, 4] was 0.04%. The “HPLC Purity” value [2, 4] was 99.91%, the Polymorphic form [2, 4] was “Unchanged” and the “Content of Compound of Formula D” value [2, 5] was 0.05%. For the same compound, the “HPLC Purity” value [2, 5] was 99.87%, the Polymorphic form [2, 5] was “Unchanged” and the “Content of Compound of Formula D” value [2, 6] was 0.04%. The “HPLC Purity” value [2, 6] was 99.9%, the “Content of Compound of Formula D” value [2, 7] was 0.04% and the “HPLC Purity” value [2, 7] was 99.91%. For the same compound, the Polymorphic form [2, 7] was “Unchanged”, the “Content of Compound of Formula D” value [2, 8] was 0.05% and the “HPLC Purity” value [2, 8] was 99.83%. For the same compound, the Polymorphic form [2, 8] was “Unchanged”, the “Content of Compound of Formula D” value [2, 9] was 0.04% and the “HPLC Purity” value [2, 9] was 99.9%. For the same compound, the “Content of Compound of Formula D” value [2, 10] was 0.04%, the “HPLC Purity” value [2, 10] was 99.92% and the Polymorphic form [2, 10] was “Unchanged”. For the same compound, the “Content of Compound of Formula D” value [2, 11] was 0.05%, the “HPLC Purity” value [2, 11] was 99.85% and the Polymorphic form [2, 11] was “Unchanged”. The “Content of Compound of Formula D” value [2, 12] was 0.04%, the “HPLC Purity” value [2, 12] was 99.9% and the “Angle of Repose” value [3] was 30.6 °. For the same compound, the “Bulk Density” value [3] was 0.61 g/mL and the “Tapped Density” value [3] was 0.73 g/mL.
